Test results reported in US20140255432A1, “SILVESTROL, SILVESTROL ANALOGS AND USES THEREOF” (priority 2011, published 2014).

Key:
[1] = tested on: EBV-positive lymphoblastoid cell lines (LCL); experiment: MTS proliferation assay; assay type: cell-based, human
Experimental: MTS proliferation assays were performed according the CellTiter 96™ Aqueous Cell Proliferation Assay Technical Bulletin (Promega, Madison, Wis.). 5×10^4 cells were plated in each well of a 96-well plate at 37° C. and assayed for proliferation at 24, 72, and 120 hr.
The direct anti-tumor activity of silvestrol in leukemia and lymphoma models has been document (Hwang 2004; Bordeleau 2008; Cencic 2009; Lucas 2009 Alinari 2011; Saradhi 2011) as well as silvestrol's increased cytotoxicity to malignant B cells compared to normal blood lymphocytes (Lucas 2009). However, activity of silvestrol has not previously been described in spontaneous EBV-transformed cell lines. Silvestrol's activity in fully transformed EBV-positive LCL derived from tumors of SCID mice engrafted with PBMC from EBV-seropositive donors was observed. Six of these EBV-LCL lines were plated in the presence of low concentrations of silvestrol (2-50 nM), and apoptosis (viability assessed by annexin/PI flow cytometry) (FIG. 2A) and proliferation (MTS assay) (FIG. 2B) were evaluated at 24, 72, and 120 hr. Cells were plated at a sufficiently low density so that even after five days there was minimal loss of viability due to nutrient depletion in the untreated control. In FIG. 2A, data are shown as percent annexin-negative and PI-negative cells relative to the time-matched vehicle control. Bars show −/+ standard deviation. […]

EBV-LPD = experiment: hu-PBL-SCID model of EBV-LPD; assay type: in vivo, SCID mice
Experimental: Six week-old female SCID mice (n=28) received anti-asialo antisera prior to engraftment to deplete murine NK cells. Mice were engrafted intraperitoneally with 5×10^7 peripheral blood mononuclear cells (PBMCs) obtained from EBV-positive, healthy donor. Untreated mice in this model develop lethal disseminated (human) lymphoma; median survival varies by PBMC donor for that experiment. Two weeks post-engraftment, treatments were initiated with either vehicle (30% HBPCD) or vehicle+silvestrol (1.5 mg/kg every 48 hrs; n=14 each). 4 and 8 weeks post-engraftment, 2 mice from each group were sacrificed for examination and blood was drawn from all mice to assess human IgG levels (FIG. 23). The remainder of mice (n=10 each) were followed for survival. Survival is defined as absence of IACUC-approved euthanasia criteria (in this model, typically this is weight loss >20%, together with labored breathing and cessation of grooming).
The Hu-PBL-SCID mouse model has been described (Mosier 1992). Human PBMCs were obtained from a healthy EBV seropositive donor. 5×10^7 cells were injected intraperitoneally (IP) into 6 week-old female SCID mice (Taconic) that were NK cell-depleted by pretreatment with anti-asialo (GM1) (Wako Pure Chemical Industries, Richmond, Va.). Engraftment was confirmed by hu-IgG ELISA from serum as described (Baiocchi 1994). Silvestrol treatment began two weeks post-engraftment.
The hu-PBL SCID model has been used to study the effect of compounds on spontaneously derived EBV-driven lymphomas (Fuzzati-Armentero 1998). PBMC from a healthy EBV-positive donor were injected into a group of SCID mice that had been pretreated with anti-asialo (GM1) to deplete murine NK cells. Mice were randomized (n=14/group) and treatment with 1.5 mg/kg silvestrol or vehicle control every 48 hr began two weeks after engraftment. Two weeks after treatment began (four weeks post-engraftment), an ELISA was performed to evaluate human IgG. […] At 4 and 8 weeks post-engraftment, flow cytometry analysis was performed on spleen cells from two mice in each group. […] Spleens were also obtained from mice as the disease progressed and euthanasia criteria were met. […] During the 140-day experiment, the health of the mice was tracked by body weight. Weights of all mice were checked twice weekly.

[2] = tested on: STAT1, STAT3, AKT and NF-κB p65; experiment: Immunoblot of LMP-1 downstream pathways in LCL; assay type: cell-based, human
Experimental: Cells were harvested and lysed as described (Alinari 2011). Following collection of whole cell lysates, equal amounts of protein were resolved by SDS-PAGE and transferred onto a PVDF membrane (Millipore, Billerica, Mass.). Membrane was probed overnight at 4° C. with β-actin, pSTAT1, pSTAT3, STAT1, STAT3, pAkt, Akt (Cell Signaling Technology, Danvers, Mass.), or LMP-1 (DakoCytomation, Carpinteria, Calif.). After incubation with HRP-conjugated secondary antibody (Cell Signaling Technology), protein was detected with SuperSignal West Pico Chemiluminescent Substrate (Pierce, Rockford, Ill.).
Through its cytoplasmic C-terminal-activating region 1 (CTAR1), LMP-1 constitutively activates multiple pro-survival signaling pathways including NF-κB, PI3K/AKT, and STATs 1 and 3 (Shair 2007; Gires 1999; Dawson 2003; Kung 2008; Kung 2011) similar to an external growth stimulus. Thus, LMP-1 directly and indirectly promotes tumor cell growth and survival through diverse mechanisms. To investigate the effects of silvestrol on these pathways, LCLs were incubated for 24, 72, and 120 hr with vehicle or 10 nM silvestrol, and cell extracts were analyzed by immunoblot. […] Using the same treatment conditions, a decrease in the levels of both total Akt and its activated, phosphorylated form was observed. […] Total levels of NF-κB proteins such as p50, p105, and IKBa were unchanged (left panel), as were Bcl2 family proteins such as Bcl2, Mel1, and Bax (right panel) (FIG. 36).

K562 cells = experiment: NK cytotoxicity of K562 cells; assay type: cell-based; conditions: 10 nM (FIG. 41)
Source text: FIG. 41 presents data regarding NK cytotoxicity of K562 cells. […] FIG. 42 presents data regarding the cytotoxicity of LCLs pretreated with BZLF 1. […] BZLF1 antigen pulsed LCLs promoted enhanced killing in untreated and silvestrol-treated CTLs. FIG. 43 presents data relating to CD4 IFNgamma release with LCL pretreated with BZLF1. […] FIG. 44 presents data relating to CD4 IFNgamma release with LCL pretreated with BZLF 1. […] FIG. 45 presents data relating to interleukin-6 induction by silvestrol. […] FIG. 46 presents data relating to a change in LMP-1 expression following silvestrol treatment. […] Three cell lines were examined on days 1, 3, and 5 following treatment. FIG. 47 presents data relating to a change in EBNA1 expression following silvestrol treatment. Three cell lines were examined on days 1, 3, and 5 following treatment.

[3] = 1.5 mg/kg every 48 hr, 140-day experiment

COC(=O)[C@H]1[C@@H](O)[C@@]2(O)c3c(OC)cc(O[C@@H]4O[C@@H]([C@H](O)CO)CO[C@H]4OC)cc3O[C@@]2(c2ccc(OC)cc2)[C@@H]1c1ccccc1 [silvestrol]
growth inhibition vs. untreated control ([1]; 2-50 nM, 24, 72, 120 hr, p<0.0001 averaged over doses and time points): Moderate but significant activity
IC50 ([1]; Homo sapiens, Lymphoblastoid cell, six EBV-LCL lines, 72 hr, estimated, read-out: 50% growth inhibitory concentration (IC50)): ~40 nM
signs of disease at the end of the study (flow cytometry of spleen cells) (EBV-LPD; 1.5 mg/kg every 48 hr): no signs of disease
engraftment of human PBMCs (human immunoglobulin production) (EBV-LPD; 1.5 mg/kg every 48 hr (FIG. 23)): did not affect engraftment
EBV-LPD infiltration of the spleen (flow cytometry) (EBV-LPD; 1.5 mg/kg every 48 hr, 4 and 8 weeks post-engraftment): no tumor burden
body weight compared to vehicle-treated mice (EBV-LPD; [3]): gain weight at a faster pace
ill effects from long-term treatment (EBV-LPD; [3]): did not show observable ill effects
mean spleen weight (EBV-LPD; 1.5 mg/kg every 48 hr, after completion of the experiment at day 140): 72.9 mg
production of human IgG by xenografted B-lymphocytes (EBV-LPD; 1.5 mg/kg every 48 hr, four weeks post-engraftment): did not affect
mice alive at day 140 (overall survival) (EBV-LPD; 1.5 mg/kg every 48 hr, p<0.001 vs. vehicle): 7/7
phosphorylated (activated) STAT1 level ([2]; 10 nM, 24, 72, 120 hr): decreased
phosphorylated (activated) STAT3 level ([2]; 10 nM, 24, 72, 120 hr): decreased
phosphorylated Akt level ([2]; 10 nM, 24, 72, 120 hr): a decrease
total Akt level ([2]; 10 nM, 24, 72, 120 hr): a decrease
total STAT1 level ([2]; 10 nM, 24, 72, 120 hr): remained unchanged
total STAT3 level ([2]; 10 nM, 24, 72, 120 hr): remained unchanged
total p65 levels ([2]; 10 nM, 24, 72, 120 hr): relatively unchanged
total levels of NF-κB proteins p50, p105, IKBa ([2]; FIG. 36 left panel): unchanged
Bcl2 family proteins Bcl2, Mcl1, Bax ([2]; FIG. 36 right panel): unchanged
direct killing of K562 cells by NK cells (K562 cells): not adversely affected
